Data set [1] has as its system L1210 Leukemia. Description: L1210 Leukemia ascitic tumor in mice (Test 5). In kind it is in vivo, mice (BDF1 or CDF1). The conditions noted are these: 10.0 mg/kg i.p., days 1-9, CDF1 mice; in physiological saline. An excerpt: L1210 Leukemia (1×10^5 cells), maintained i.p. by serial passage in female DBA/2 mice, was implanted i.p. to female BDF1 or CDF1 mice on day 0, and the test compounds or vehicle were given i.p. to the mice once a day on days 1-9.
(§1) Ten mice were used for each test group, and twenty mice were used for each vehicle-treated control group.
(§2) Drug efficacy against the ascitic tumors is expressed as percentage of the median (mean) survival time of the test group to that of the control group. [formula] .circle.2 Results

The test system of the next data set is Colon 38 carcinoma. Description: in vivo murine solid tumor model, Colon 38 carcinoma (Test 7). On the set-up: species or system mice. The conditions noted are these: 10.0 mg/kg i.v., days 1, 4, 7 and 10; tumor weight on day 21. Here is the method:
Colon 38 carcinoma (fragment, 2×2×2 mm), maintained s.c. by serial passage in female C57BL/6 mice, was implanted s.c. to female BDFhd 1 mice on day 0, and the test compounds or vehicle were given i.v. to the mice once a day on days 1, 4, 7 and 10. Tumor weight was measured on day 21.
(§3) Tumor weight was calculated as follows: (Tumor length and width were measured by caliper.)
(§4) Tumor weight (mg)=1/2×a×b^2, where a represents length and b represents width (mm).
Ten mice were used for each test group or vehicle-treated control group.
Drug efficacy against the solid tumor is expressed as percentage of the mean tumor weight of the test group to that of the control group. [formula]

The next data set concerns Human MX-1 mammary. Description: Human MX-1 mammary tumor in nude mice (Test 9). Type of data set: in vivo, human (in BALB/c nu/nu mice). The conditions noted are these: 32. mg/kg (so in the source) i.v., days 10, 14 & 17; evaluation day 21. Here is the method:
(§5) Human LX-1 lung or MX-1 mammary (each fragment, 2×2×2 mm), maintained s.c. by serial passage in male BALB/c nu/nu mice, was implanted s.c. to male BALB/c nu/nu mice on day 0, and the test compounds or vehicle were given i.v. to the mice once a day on specified days in Table 9.
as §3, §4
(§6) Tumor weights (initial) and (last) were calculated on the first injection day (just before dosing) and on day 21, 27 or 28 (the last evaluation day), respectively.
(§7) Five mice were used for each test group and 5 or 10 mice were used for each vehicle-treated control group.
(§8) Drug efficacy was expressed as percentage of mean tumor weight of the test group to that of the control group. [formula]

The test system of data set [2] is B16 Melanoma. Kind of data set: B16 Melanoma in mice, graded doses (Test 11). In kind it is in vivo, mice (BDF1). The conditions noted are these: days 1-9. Here is the method:
(§9) B16 Melanoma (1:10 brei, 0.5 ml), maintained s.c. by serial passage in female C57BL/6 mice, was implanted i.p. to female BDF1 mice on day 0, and the test compounds or vehicle were given i.p. to the mice once a day on days 1-9.
as §1
(§10) Compound R (which was dissolved in 10% polyoxyethylated (60 mol) hydrogenated castor oil in physiological saline solution)
(§11) Drug efficacy against the ascitic tumors is expressed as percentage of the median (mean) survival time of the test group to that of the control group. [formula]

The subject of data set [3] is mouse lymphocytic leukemia P388 tumor cells. Description: in vitro cytotoxicity, P388 tumor cells, 72 hours (Test 4). Type of data set: cell-based. The conditions noted are these: 50% inhibition of cell growth, 37° C. Here is the method: A suspension of mouse lymphocytic leukemia P388 tumor cells was prepared from a diluted ascitic fluid using Hanks' solution after 7 days of tumor implantation, and centrifuged at 1000 rpm for 15 minutes at cold temperature. The cells were adjusted at a concentration of 2.5×10^6 cell/ml in MEM Dulbecco medium supplemented with 10% foetal bovine serum, penicillin G (60 μg/ml) and streptomycin (20 μg/ml). Then, cells were treated with the graded doses of the test compounds in plastic tissue culture dishes at 37° C. and incubated for 72 hours in humidified atmosphere of 5% carbon dioxide. Concentration of the substance required for 50% inhibition of cell growth (IC50 value) (μg/ml) was determined by plotting the logarithms of the drug concentration versus the growth rate (percentage of control) of the treated cells.

The subject of data set [4] is B16 Melanoma. Kind of data set: B16 Melanoma in mice (Test 5). The conditions noted are these: 3.2 mg/kg i.p., days 1-9; in physiological saline. Type of data set: in vivo, mice (BDF1). Here is the method: as §9, §1, §2
The subject of data set [5] is L1210 Leukemia. Kind of data set: L1210 Leukemia in mice, graded doses (Test 11). In kind it is in vivo, mice (CDF1). The conditions noted are these: days 1-9. As to the method:
L1210 Leukemia (1×10^5 cells), maintained i.p. by serial passage in female DBA/2 mice, was implanted i.p. to female CDF1 mice on day 0, and the test compounds or vehicle were given i.p. to the mice once a day on days 1-9.
as §1, §10, §11

The next data set relates to Human LX-1 lung. Kind of data set: Human LX-1 lung tumor in nude mice (Test 9). The conditions noted are these: 5.6 mg/kg i.v., days 10, 14 & 17; evaluation day 21. In kind it is in vivo, human (in BALB/c nu/nu mice). Here is the method: as §5, §3, §4, §6, §7, §8

≈ marks a conversion by molar mass, not a printed value. A value given as a limit tells only on which side of the number the result lay.

The source of these data is patent US4861774A, “Method of treating tumors using tetracyclo compounds” (priority 1984, dated 1989).

As a reminder, the T/C is the ratio of treated to control. As a reminder, the IC50 is the concentration needed to halve the response being measured. Read a high IC50 as weaker potency.

For the compound `CC(=O)Oc1cc(C=O)cc2c1C(COC(N)=O)C1(OC(C)=O)ON2CC2C1N2C(C)=O` (stereo not drawn) [Compound R, 11-Acetyl-4-formyl-8-carbamoyloxymethyl-14-oxa-1,11-diazatetracyclo[7.4.1.0^2,7.0^10,12]tetradeca-2,4,6-trien-6,9-diyl diacetate], the T/C with L1210 Leukemia [1] is recorded as 197%; in the data set with B16 Melanoma [2] (0.0032 mg/kg i.p.), 106%; in the data set with B16 Melanoma [2] (0.01 mg/kg i.p.), 122%; in the data set with B16 Melanoma [2] (0.032 mg/kg i.p.), 166%; in the data set on B16 Melanoma [2] (0.1 mg/kg i.p.), 219%; in the data set on B16 Melanoma [2] (0.32 mg/kg i.p.) it was 213%. In addition, the T/C with B16 Melanoma [2] (0.56 mg/kg i.p.) is reported as > 291%; with B16 Melanoma [2] (1.0 mg/kg i.p.), > 375%; in the data set with B16 Melanoma [2] (1.8 mg/kg i.p.), > 375%; with B16 Melanoma [2] (3.2 mg/kg i.p.), 225%; in the data set on B16 Melanoma [2] (5.6 mg/kg i.p.) it was 134%; in the data set with B16 Melanoma [2] (10 mg/kg i.p.), 66%. Further, the T/C is reported as > 316% in the data set with B16 Melanoma [4]; 125% in the data set on L1210 Leukemia [5] (0.1 mg/kg i.p.); 131% with L1210 Leukemia [5] (0.32 mg/kg i.p.); 156% in the data set on L1210 Leukemia [5] (1.0 mg/kg i.p.); 150% in the data set on L1210 Leukemia [5] (3.2 mg/kg i.p.); 163% in the data set with L1210 Leukemia [5] (5.6 mg/kg i.p.). Also, the T/C in the data set on L1210 Leukemia [5] (10 mg/kg i.p.) was determined as 106%; with L1210 Leukemia [5] (18 mg/kg i.p.), 88%. The Solubility entry in the data set “Solubility” (acetone) was “Soluble”; in “Solubility” (chloroform) it was “Soluble”; in “Solubility” (methanol), “Soluble”; in “Solubility” (water), “Insoluble”. For the same compound, the “1-T'/C'” value with Colon 38 carcinoma was determined as 100%. Further, the “1-T"/C"” value turned out to be 99% in the data set on Human MX-1 mammary and 90% in the data set with Human LX-1 lung. In [3], this compound showed a half-maximal inhibitory concentration (IC50) of 0.05 µg/mL.

For `C=C1c2c(OC(C)=O)cc(C=O)cc2N2CC3C(N3C(C)=O)C1(O)O2` (stereo not drawn) [Compound S, 11-Acetyl-4-formyl-9-hydroxy-8-methylene-14-oxa-1,11-diazatetracyclo[7.4.1.0^2,7.0^10,12]tetradeca-2,4,6-trien-6-yl acetate], in data set [3], the IC50 was 0.02 µg/mL.

`CC(=O)OCc1cc(OC(C)=O)c2c(c1)N1CC3C(N3C(C)=O)C(O)(O1)C2COC(N)=O` (stereo not drawn) [Compound T, 11-Acetyl-4-acetoxymethyl-8-carbamoyloxymethyl-9-hydroxy-14-oxa-1,11-diazatetracyclo[7.4.1.0^2,7.0^10,12]tetradeca-2,4,6-trien-6-yl acetate] had a half-inhibitory concentration (IC50) in [3] of 0.02 µg/mL.

`CC(=O)OCc1cc(OC(C)=O)c2c(c1)N1CC3C(N3C(C)=O)C(OC(C)=O)(O1)C2COC(N)=O` (stereo not drawn) [Compound U, 4-Acetoxymethyl-11-acetyl-8-carbamoyloxymethyl-14-oxa-1,11-diazatetracyclo[7.4.1.0^2,7.0^10,12]tetradeca-2,4,6-trien-6,9-diyl diacetate] had an IC50 in [3] of 0.01 to 0.02 µg/mL.

Regarding `COc1cc(C=O)cc2c1C(COC(N)=O)C1(OC(C)=O)ON2CC2C1N2C(C)=O` (stereo not drawn) [Compound V, 11-Acetyl-8-carbamoyloxymethyl-4-formyl-6-methoxy-14-oxa-1,11-diazatetracyclo[7.4.1.0^2,7.0^10,12]tetradeca-2,4,6-trien-9-yl acetate], in [3], the half-inhibitory concentration (IC50) stood at 0.02 µg/mL.

In data set [3], `COc1cc(C=O)cc2c1C(COC(N)=O)C1(O)ON2CC2C1N2C(C)=O` (stereo not drawn) [Compound W, 11-Acetyl-4-formyl-9-hydroxy-6-methoxy-14-oxa-1,11-diazatetracyclo[7.4.1.0^2,7.0^10,12]tetradeca-2,4,6-trien-8-ylmethyl carbamate] came in with a 50% inhibitory concentration (IC50) of 0.01 µg/mL (≈ 0.0265 µM).
